Measurements published in patent publication US20220264878A1, “HERBICIDAL COMPOSITION CONTAINING R-TYPE PYRIDYLOXY CARBOXYLIC ACID DERIVATIVE AND USE THEREOF” (Qingdao Kingagroot Chemical Compound Co., Ltd., priority 2019, published 2022).
Read-outs that look alike come from different tables or passages of the source.

Assays:
Format in all cases: in vivo
[1] = test system: Chenopodium album; assay: Post-emergence foliage spray, pot culture, fresh weight inhibition (Tables 1-48, 51-98, 101-148; 24 days)
Outline: (§1)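 Pot-grown weeds were thinned to 15 per pot (45 per treatment) and sprayed on foliage at the 5–6-leaf stage for grasses or the 6–7-leaf stage for broadleaves. Agents were dissolved in acetone with 0.1% Tween-80 and applied at 450 kg/ha spray volume and 0.3 MPa. Plants were then kept in a greenhouse. Above-ground fresh weight of survivors, with dead plants counted as zero, gave inhibition versus a solvent/emulsifier blank.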

[2] = test system: Echinochloa caudate; assay: as above
Outline: as §1

[3] = test system: Malachium aquaticum; assay: as above
Outline: as §1

[4] = test system: Alopecurus japonicus; assay: Post-emergence foliage spray, pot culture, fresh weight inhibition (Tables 151-206; 20 days)
Outline: (§2)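 Field-collected weeds grown in pots in a greenhouse (20-30° C., natural light, 57-72% RH), 15 per pot, 3 pots × 4 replicates. Single foliar spray at 4-5 leaves (grasses) or 5-6 leaves (broadleaf) with acetone/0.1% Tween-80 dilutions at 450 kg/ha, 0.3 MPa. Above-ground fresh weight inhibition versus solvent blank at 20 days.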

[5] = test system: Digitaria sanguinalis; assay: as above; details: Digitaria sanguinalis, 480 h, read-out: Control effect (%) of A applied alone in corresponding dose
Outline: as §2

[6] = test system: Eleusine indica; assay: as above
Outline: as §2

[7] = test system: Sinapis arvensis; assay: as above
Outline: as §2

[8] = test system: Amaranthus retroflexus; assay: as above
Outline: (§3)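 Pre-germinated seeds (25° C soak 6 h, 28° C dark) grown in pots, thinned to 15 per pot; foliage-sprayed at 4~5-leaf (grasses) or 5~6-leaf (broadleaf) stage, 450 kg/ha spray volume, 0.3 MPa. Agents in acetone diluted with 0.1% Tween-80 water; solvent blank control. Above-ground fresh weight weighed, dead weeds scored zero.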

[9] = test system: Capsella bursa-pastoris; assay: as above; details: Capsella bursa-pastoris, 480 h, read-out: Control effect (%) of A applied alone in corresponding dose
Outline: as §3

[10] = test system: Echinochloa crusgalli var. zelayensis; assay: Post-emergence foliage spray, pot culture, fresh weight inhibition (Tables 1-48, 51-98, 101-148; 24 days)
Outline: as §1

[11] = test system: Galium aparine L.; assay: as above; details: fresh weight inhibition after 24 days
Outline: as §1

[12] = A alone 75 g a.i./ha, 20 days after treatment
[13] = A alone 150 g a.i./ha, 20 days after treatment

With `C[C@@H](Oc1nc(F)c(Cl)c(N)c1Cl)C(=O)O` [Compound A1] the “Control effect (%) of A applied alone in corresponding dose” value (from here on “Control effect (%) of A applied alone”) ([1]; A1 7.5 g a.i./ha) was 23.1%, the “Control effect (%) of A applied alone” value ([1]; A1 15 g a.i./ha) was 55.6% and the “Control effect (%) of A applied alone” value ([1]; Table 91, 75 g a.i./ha) was 23.1%. The “Control effect (%) of A applied alone” value ([1]; Table 91, 150 g a.i./ha) was 55.6%, the “Control effect (%) of A applied alone” value ([1]; Table 92, 75 g a.i./ha) was 23.1% and the “Control effect (%) of A applied alone” value ([1]; Table 92, 150 g a.i./ha) was 55.6%. The “Control effect (%) of A applied alone” value ([1]; Table 93, 75 g a.i./ha) was 23.1%, the “Control effect (%) of A applied alone” value ([1]; Table 93, 150 g a.i./ha) was 55.6% and the “Control effect (%) of A applied alone” value ([1]; Table 94, 75 g a.i./ha) was 23.1%. For the same compound, the “Control effect (%) of A applied alone” value ([1]; Table 94, 150 g a.i./ha) was 55.6%, the “Control effect (%) of A applied alone” value ([1]; Table 95, 75 g a.i./ha) was 23.1% and the “Control effect (%) of A applied alone” value ([1]; Table 95, 150 g a.i./ha) was 55.6%. The “Control effect (%) of A applied alone” value ([1]; Table 96, 75 g a.i./ha) was 23.1%, the “Control effect (%) of A applied alone” value ([1]; Table 96, 150 g a.i./ha) was 55.6% and the “Control effect (%) of A applied alone” value ([2]; A1 75 g a.i./ha) was 55.2%. The “Control effect (%) of A applied alone” value ([2]; A1 150 g a.i./ha) was 76.3%, the “Control effect (%) of A applied alone” value ([2]; Table 80, 7.5 g a.i./ha) was 55.2% and the “Control effect (%) of A applied alone” value ([2]; Table 80, 15 g a.i./ha) was 76.3%. The “Control effect (%) of A applied alone” value ([2]; Table 81, 75 g a.i./ha) was 55.2%, the “Control effect (%) of A applied alone” value ([2]; Table 81, 150 g a.i./ha) was 76.3% and the “Control effect (%) of A applied alone” value ([2]; Table 85, 75 g a.i./ha) was 55.2%. For the same compound, the “Control effect (%) of A applied alone” value ([2]; Table 85, 150 g a.i./ha) was 76.3%, the “Control effect (%) of A applied alone” value ([2]; Table 86, 75 g a.i./ha) was 55.2% and the “Control effect (%) of A applied alone” value ([2]; Table 86, 150 g a.i./ha) was 76.3%. The “Control effect (%) of A applied alone” value ([2]; Table 89, 75 g a.i./ha) was 55.2%, the “Control effect (%) of A applied alone” value ([2]; Table 89, 150 g a.i./ha) was 76.3% and the “Control effect (%) of A applied alone” value ([2]; Table 97, 75 g a.i./ha) was 55.2%. For the same compound, the “Control effect (%) of A applied alone” value ([2]; Table 97, 150 g a.i./ha) was 76.3%, the “Control effect (%) of A applied alone” value ([3]; A1 7.5 g a.i./ha) was 35.8% and the “Control effect (%) of A applied alone” value ([3]; A1 15 g a.i./ha) was 69.6%. For the same compound, the “Control effect (%) of A applied alone” value ([4]; A 75 g a.i./ha, 20 days) was 31.3%, the “Control effect (%) of A applied alone” value ([4]; A 150 g a.i./ha, 20 days) was 57.6% and the pest or weed control at 75 g/ha ([5]; A 75 g a.i./ha, 20 days) was 25.9%. The pest or weed control at 150 g/ha ([5]; A 150 g a.i./ha, 20 days) was 69.1%, the “Control effect (%) of A applied alone” value ([6]; A 75 g a.i./ha, 20 days) was 46.9% and the “Control effect (%) of A applied alone” value ([6]; A 150 g a.i./ha, 20 days) was 81.2%. The “Control effect (%) of A applied alone” value ([7]; A 75 g a.i./ha, 20 days) was 50.4%, the “Control effect (%) of A applied alone” value ([7]; A 150 g a.i./ha, 20 days) was 79.9% and the “Control effect (%) of A applied alone” value ([8]; A 75 g a.i./ha, 20 days) was 35.4%. The “Control effect (%) of A applied alone” value ([8]; A 150 g a.i./ha, 20 days) was 71.7%, the pest or weed control at 75 g/ha ([9]; A 75 g a.i./ha, 20 days) was 56.5% and the pest or weed control at 150 g/ha ([9]; A 150 g a.i./ha, 20 days) was 82.4%.

For `C[C@@H](Oc1nc(F)c(Cl)c(N)c1Cl)C(=O)OCC1CCCO1` (stereo partly shown) [Compound A2], the “Control effect (%) of A applied alone” value ([10]; A2 75 g a.i./ha) was 54.2%, the “Control effect (%) of A applied alone” value ([10]; A2 150 g a.i./ha) was 75.3% and the “Control effect (%) of A applied alone” value ([10]; A 75 g a.i./ha, foliage spray, fresh weight inhibition after 24 days) was 54.2%. For the same compound, the “Control effect (%) of A applied alone” value ([10]; A 150 g a.i./ha, foliage spray, fresh weight inhibition after 24 days) was 75.3%, the “Control effect (%) of A applied alone” value ([11]; A 7.5 g a.i/ha) was 34.8% and the “Control effect (%) of A applied alone” value ([11]; A 15 g a.i/ha) was 68.5%. For the same compound, the “Control effect (%) of A applied alone” value ([11]; A 150 g a.i/ha (so in the source)) was 68.5%, the “Control effect (%) of A applied alone” value [4, 12] was 24.4% and the “Control effect (%) of A applied alone” value [4, 13] was 44.5%. The pest or weed control at 75 g/ha [5, 12] was 19.4%, the pest or weed control at 150 g/ha [5, 13] was 51.6% and the “Control effect (%) of A applied alone” value [6, 12] was 35.7%. For the same compound, the “Control effect (%) of A applied alone” value [6, 13] was 63.3%, the “Control effect (%) of A applied alone” value [7, 12] was 37.9% and the “Control effect (%) of A applied alone” value [7, 13] was 60.4%. For the same compound, the “Control effect (%) of A applied alone” value [8, 12] was 25.7%, the “Control effect (%) of A applied alone” value [8, 13] was 51.8% and the pest or weed control at 75 g/ha [9, 12] was 44.2%. It also gave a pest or weed control at 150 g/ha [9, 13] of 65%.
